Experimental data taken from ChEMBL document CHEMBL1777782, “Indole 5-carboxamide Thumb Pocket I inhibitors of HCV NS5B polymerase with nanomolar potency in cell-based subgenomic replicons (part 2): central amino acid linker and right-hand-side SAR studies” (Bioorg Med Chem Lett, 2011).
In brackets after ≈: the same amount, converted by molar mass.

How the values were obtained:
[1] = Inhibition of HCV 1b NS5B RNA dependent RNA polymerase by scintillation proximity assay; design: species or system Hepacivirus hominis
Hepatitis C virus = experiment: Antiviral activity against Hepatitis C virus genotype 1b infected in human Huh-7 cells assessed as inhibition of viral replication after 72 hrs; format: functional, organism-based, Hepacivirus hominis; conditions: Huh-7, 72 h
[2] = Half life in human liver microsomes at 10 uM
[3] = Permeability across apical to basolateral side in human Caco2 cells; conditions: Caco-2
[4] = Selectivity ratio for polio virus RNA-dependent RNA polymerase to HCV 1b NS5B RNA dependent RNA polymerase
[5] = Selectivity ratio for mammalian DNA-dependent RNA polymerase II to HCV 1b NS5B RNA dependent RNA polymerase
physchem = conditions: phosphate buffer, pH 7.2

| Structure (SMILES) | IC50 [1] | EC50 (Hepatitis C virus) | half-life at 10 µM ([2]; liver microsomes) | Papp A→B [3] | Ratio [4] | Ratio [5] | solubility thermodynamic at 24 h (physchem) | half-life at 10 µM ([2]; microsomes) |
| --- | --- | --- | --- | --- | --- | --- | --- | --- |
| CCN1CC[C@@](NC(=O)c2ccc3c(C4CCCCC4)c(-c4ccccn4)n(C)c3c2)(C(=O)Nc2ccc(/C=C/C(=O)O)cc2)C1 | 0.023 µM | 0.05 µM | 61 min | 56 nm/s | > 150 | > 150 | – | – |
| Cn1c(-c2ccccn2)c(C2CCCCC2)c2ccc(C(=O)NC(C)(C)C(=O)Nc3ccc(NC(=O)C(=O)O)cc3)cc21 | 0.034 µM | 2.5 µM | – | – | > 150 | > 150 | – | – |
| Cn1c(C(=O)O)cc2cc(NC(=O)C(C)(C)NC(=O)c3ccc4c(C5CCCCC5)c(-c5ccccn5)n(C)c4c3)ccc21 | 0.075 µM | 0.143 µM | 36 min | 7 nm/s | > 150 | > 150 | 0.945 mg/mL (≈ 1600 µM) | – |
| Cn1c(-c2ccccn2)c(C2CCCCC2)c2ccc(C(=O)NC(C)(C)C(=O)Nc3ccc(-c4ccc(C(=O)O)o4)cc3)cc21 | 0.152 µM | 0.145 µM | 43 min | 2 nm/s | > 150 | > 150 | > 0.564 mg/mL | – |
| Cn1c(C(N)=O)cc2cc(NC(=O)C(C)(C)NC(=O)c3ccc4c(C5CCCCC5)c(-c5ccccn5)n(C)c4c3)ccc21 | 0.165 µM | 0.097 µM | 21 min | – | > 150 | > 150 | < 0.0001 mg/mL | – |
| Cn1c(-c2ccccn2)c(C2CCCCC2)c2ccc(C(=O)N[C@]3(C(=O)Nc4ccc(/C=C/C(=O)O)cc4)CCNC3)cc21 | 0.055 µM | 0.194 µM | 191 min | 1 nm/s | > 150 | > 150 | 0.019 mg/mL (≈ 32.1 µM) | – |
| Cn1c(-c2ccccn2)c(C2CCCCC2)c2ccc(C(=O)NC3(C(=O)Nc4ccc(-c5cnc(N)nc5)cc4)CCC3)cc21 | 0.745 µM | 0.18 µM | – | – | > 150 | > 150 | 0.0009 mg/mL (≈ 1.5 µM) | – |
| Cn1c(-c2ccccn2)c(C2CCCCC2)c2ccc(C(=O)NC(C)(C)C(=O)Nc3ccc(NC(=O)C(N)=O)cc3)cc21 | 0.124 µM | 0.139 µM | 25 min | 129 nm/s | > 150 | > 150 | 0.001 mg/mL (≈ 1.72 µM) | – |
| Cn1c(-c2ccccn2)c(C2CCCCC2)c2ccc(C(=O)NC(C)(C)C(=O)Nc3ccc4sc(C(=O)O)cc4c3)cc21 | 0.023 µM | 0.088 µM | 49 min | 4 nm/s | > 150 | > 150 | 0.468 mg/mL (≈ 787 µM) | – |
| Cn1c(-c2ccccn2)c(C2CCCCC2)c2ccc(C(=O)NC(C)(C)C(=O)Nc3ccc(-c4nc(C(=O)O)cs4)cc3)cc21 | 0.154 µM | 0.42 µM | 55 min | < 1 nm/s | > 150 | > 150 | 0.662 mg/mL (≈ 1060 µM) | – |
| CC(=O)N1CCCC(NC(=O)c2ccc3c(C4CCCCC4)c(-c4ccccn4)n(C)c3c2)(C(=O)Nc2ccc(/C=C/C(=O)O)cc2)C1 (racemic) | 0.23 µM | 0.23 µM | 256 min | 55 nm/s | > 150 | > 150 | 0.024 mg/mL (≈ 37 µM) | – |
| CN1CCC(NC(=O)c2ccc3c(C4CCCCC4)c(-c4ccccn4)n(C)c3c2)(C(=O)Nc2ccc3sc(C(=O)O)cc3c2)CC1 | 0.017 µM | 0.22 µM | – | – | > 150 | > 150 | – | – |
| Cn1c(-c2ccccn2)c(C2CCCCC2)c2ccc(C(=O)NC3(C(=O)Nc4ccc(/C=C/C(=O)O)cc4)CCOCC3)cc21 | 0.068 µM | 0.17 µM | 41 min | 57 nm/s | > 150 | > 150 | 0.015 mg/mL (≈ 24.7 µM) | – |
| CN1CCCC(NC(=O)c2ccc3c(C4CCCCC4)c(-c4ccccn4)n(C)c3c2)(C(=O)Nc2ccc(/C=C/C(=O)O)cc2)C1 (racemic) | 0.043 µM | 0.066 µM | – | – | > 150 | > 150 | – | – |
| Cn1c(-c2ccccn2)c(C2CCCCC2)c2ccc(C(=O)NC(C)(C)C(=O)Nc3ccc(-c4ccc(C(N)=O)o4)cc3)cc21 | 0.33 µM | 0.096 µM | 19 min | – | > 150 | > 150 | < 0.0001 mg/mL | – |
| Cc1c(C(=O)O)sc2ccc(NC(=O)[C@]3(NC(=O)c4ccc5c(C6CCCCC6)c(-c6ccccn6)n(C)c5c4)CCCNC3)cc12 | 0.035 µM | 0.06 µM | – | – | – | – | – | 93 min |
| Cc1c(C(=O)O)sc2ccc(NC(=O)C3(NC(=O)c4ccc5c(C6CCCCC6)c(-c6ccccn6)n(C)c5c4)CCN(C)CC3)cc12 | 0.027 µM | 0.058 µM | 185 min | 8 nm/s | > 150 | > 150 | 0.001 mg/mL (≈ 1.51 µM) | – |
| Cn1c(-c2ccccn2)c(C2CCCCC2)c2ccc(C(=O)NC(C)(C)C(=O)Nc3ccc(-c4nc(C(N)=O)cs4)cc3)cc21 | 0.317 µM | 0.15 µM | 16 min | – | > 150 | > 150 | < 0.0001 mg/mL | – |
| Cc1c(C(=O)O)sc2ccc(NC(=O)C(C)(C)NC(=O)c3ccc4c(C5CCCCC5)c(-c5ccccn5)n(C)c4c3)cc12 | 0.035 µM | 0.046 µM | 34 min | 8 nm/s | > 150 | > 150 | 0.202 mg/mL (≈ 332 µM) | – |
| Cn1c(-c2ccccn2)c(C2CCCCC2)c2ccc(C(=O)NC3(C(=O)Nc4ccc(/C=C/C(=O)O)cc4)CCNCC3)cc21 | 0.013 µM | 2 µM | – | – | > 150 | > 150 | – | – |
| CC(=O)N1CC[C@@](NC(=O)c2ccc3c(C4CCCCC4)c(-c4ccccn4)n(C)c3c2)(C(=O)Nc2ccc(/C=C/C(=O)O)cc2)C1 | 0.024 µM | 0.212 µM | – | – | > 150 | > 150 | – | – |
| CN1CC[C@](NC(=O)c2ccc3c(C4CCCCC4)c(-c4ccccn4)n(C)c3c2)(C(=O)Nc2ccc(/C=C/C(=O)O)cc2)C1 | 0.066 µM | 0.078 µM | – | 78 nm/s | > 150 | > 150 | 0.02 mg/mL (≈ 33 µM) | 46 min |
| Cn1c(-c2ccccn2)c(C2CCCCC2)c2ccc(C(=O)N[C@]3(C(=O)Nc4ccc(/C=C/C(=O)O)cc4)CCCNC3)cc21 | 0.04 µM | 0.22 µM | – | – | > 150 | > 150 | – | – |
| Cn1c(-c2ccccn2)c(C2CCCCC2)c2ccc(C(=O)NC3(C(=O)Nc4ccc(/C=C/C(=O)O)cc4)CCCCC3)cc21 | 0.194 µM | 0.129 µM | 61 min | – | > 150 | > 150 | 0.005 mg/mL (≈ 8.27 µM) | – |
| CC(C)(NC(=O)c1ccc2c(c1)nc(-c1ccoc1)n2C1CCCCC1)C(=O)Nc1ccc(/C=C/C(=O)O)cc1 | 0.04 µM | – | – | – | – | – | – | – |
| Cc1c(C(N)=O)sc2ccc(NC(=O)C3(NC(=O)c4ccc5c(C6CCCCC6)c(-c6ccccn6)n(C)c5c4)CCC3)cc12 | 0.086 µM | 0.076 µM | 71 min | – | > 150 | > 150 | – | – |
| Cn1c(-c2ccccn2)c(C2CCCCC2)c2ccc(C(=O)NC3(C(=O)Nc4ccc(S(N)(=O)=O)cc4)CCC3)cc21 | 0.312 µM | 0.35 µM | 15 min | – | > 150 | > 150 | < 0.0001 mg/mL | – |
